For the assay, the target named is T1, human factor Xa (Homo sapiens, UniProt P00742).
T1 construct: purchased Enzyme Research Laboratories
T1 sequence (P00742 235-488 limits assumed): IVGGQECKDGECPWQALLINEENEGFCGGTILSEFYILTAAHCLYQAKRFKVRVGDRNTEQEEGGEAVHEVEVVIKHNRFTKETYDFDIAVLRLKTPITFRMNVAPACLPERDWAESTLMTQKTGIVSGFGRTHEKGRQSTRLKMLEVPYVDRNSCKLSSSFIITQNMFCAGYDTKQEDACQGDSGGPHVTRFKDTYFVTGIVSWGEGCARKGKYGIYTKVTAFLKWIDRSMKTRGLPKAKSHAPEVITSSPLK
T1 sequence (P00742 41-179 partner limits assumed): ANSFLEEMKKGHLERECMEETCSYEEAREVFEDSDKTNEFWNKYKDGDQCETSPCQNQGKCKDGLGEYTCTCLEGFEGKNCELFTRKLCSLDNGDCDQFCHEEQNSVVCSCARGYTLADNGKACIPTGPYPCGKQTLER
Briefly: Factor Xa chromogenic peptide substrate (S-2222) assay. The assay is classed as biochemical. The following applies: apparent Ki from IC50 by Cheng-Prusoff; enzyme 3 nM, substrate S-2222, pH 7.8, room temperature. On the procedure:
Factor Xa activity was measured spectrophotometrically in microtiter plates in a final volume of 150 μl using the following conditions: Inhibition of human factor Xa (Enzyme Research Laboratories) was tested at an enzyme concentration of 3 nM using the chromogenic substrate S-2222 (Chromogenix AB, Mölndal, Sweden) at […]. The reaction kinetics of the enzyme and the substrate were linear with both time and the enzyme concentration. The inhibitors were dissolved in DMSO and tested at various concentrations up to 100 μM. The inhibitors were diluted using HNPT buffer consisting of HEPES 100 mM, NaCl 140 mM, PEG 6000 0.1% and Tween 80 0.02%, pH 7.8. The cleavage of S-2222 by human factor Xa was followed at 405 nm for 5 minutes at room temperature. The velocity of the reaction was determined by the autoreader from the slope of the linear regression fit to 7 time points (1 minute). The initial velocity for each inhibitor concentration was determined by the slope of at least 4 time points in the linear phase by a linear regression fit […]. Apparent dissociation constants Ki were calculated according to Cheng and Prusoff [Cheng, Y. C.; Prusoff, W. H. Relationship between the inhibition constant (Ki) and the concentration of the inhibitor that causes 50 percent inhibition (IC50) of an enzyme reaction. Biochem. Pharmacol. 1973, 22, 3099-3108.] based on the IC50 and the respective Km, determined previously (Ki=IC50/(1+S/Km)). The Km for the substrate used was determined under the conditions of the test with at least 5 substrate concentrations ranging from 0.5 to 15 times Km. [Lottenberg R, Hall J A, Blinder M, Binder E P, Jackson C M., The action of thrombin on peptide p-nitroanilide substrates. Substrate selectivity and examination of hydrolysis under different reaction conditions. Biochim Biophys Acta. 1983 Feb. 15; 742(3):539-57]. According to Eadie [Eadie G.S. The inhibition of cholinesterase by physostigmine and prostigmine. J. Biol. Chem. 1942, 146, 85-93.], the Km for S-2222 amounted to 613 μM.
`Cn1ncc2c1CN(C(=O)Nc1ccc(Cl)cn1)[C@H]2C(=O)Nc1ccc(-n2ccccc2=O)cc1F` [Example 3, (R)-1-Methyl-4,6-dihydro-1H-pyrrolo[3,4-c]pyrazole-4,5-dicarboxylic acid 5-[(5-chloro-pyridin-2-yl)-amide]4-{[2-fluoro-4-(2-oxo-2H-pyridin-1-yl)-phenyl]-amide}]: the Ki turned out to be 19 nM. `O=C(Nc1ccc(-n2ccccc2=O)cc1F)C1Cc2cccnc2CN1C(=O)Nc1ccc(Cl)cc1` (stereo not drawn) [Example 18, 5,8-Dihydro-6H-[1,7]naphthyridine-6,7-dicarboxylic acid 7-[(4-chloro-phenyl)-amide]6-{[2-fluoro-4-(2-oxo-2H-pyridin-1-yl)-phenyl]-amide}]: the Ki was determined as 12 nM. To `O=C(Nc1ccc(-n2ccccc2=O)cc1F)C1Cc2cccnc2N1C(=O)Nc1ccc(Cl)cc1` (stereo not drawn) [Example 16, 2,3-Dihydro-pyrrolo[2,3-b]pyridine-1,2-dicarboxylic acid 1-[(4-chloro-phenyl)-amide]2-{[2-fluoro-4-(2-oxo-2H-pyridin-1-yl)-phenyl]-amide}] belongs 51 nM.

The record behind these values is patent US7417144B2, “Factor Xa inhibitors” (Hoffman-La Roche Inc., priority 2005, dated 2008).
